Measured values: patent EP0314239A2, “Tripeptide renin inhibitors with N-terminal ureido or sulfamido groups” (Merck & Co., Inc., priority 1987, dated 1989)

Biological target: T1, renin (Homo sapiens, UniProt P00797)
T1 sequence (P00797 67-406): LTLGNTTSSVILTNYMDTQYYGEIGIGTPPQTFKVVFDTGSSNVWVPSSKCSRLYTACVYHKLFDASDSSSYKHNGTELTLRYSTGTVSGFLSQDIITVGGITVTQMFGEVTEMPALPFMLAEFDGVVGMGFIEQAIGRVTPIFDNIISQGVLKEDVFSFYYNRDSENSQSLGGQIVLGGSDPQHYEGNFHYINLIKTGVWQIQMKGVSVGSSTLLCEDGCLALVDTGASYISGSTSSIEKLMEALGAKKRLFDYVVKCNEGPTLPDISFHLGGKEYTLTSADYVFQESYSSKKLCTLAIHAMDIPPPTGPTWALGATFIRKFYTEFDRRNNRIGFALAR
Test: Renin inhibition IC50, by the methods of J. Med. Chem., 1985, 28, 1789-1790
Type: biochemical
Text: The following examples are intended to be representative and not limiting. ICso results were obtained according to the methods described in J. Med. Chem., 1985, 28, 1789-1790.

Compound | IC50
CC[C@H](C)CNC(=O)C[C@H](O)[C@H](CC1CCCCC1)NC(=O)[C@H](Cc1c[nH]cn1)NC(=O)[C@H](Cc1ccccc1)NC(=O)N1CCOCC1 [Example 4, N-(Morpholin-4-yl)carbonyl-Phenylalanyl-Histidyl-ACHPA-2(S)-Methylbutylamide] | 5 nM
CC[C@H](C)CNC(=O)C[C@H](O)[C@H](CC1CCCCC1)NC(=O)[C@H](Cc1c[nH]cn1)NC(=O)[C@H](Cc1ccccc1)NC(=O)N1CCN(C(=O)OC(C)(C)C)CC1 [Example 5, N-(4-Boc-Piperizinyl)Carbonyl-Phenylalanyl-Histidyl-ACHPA-2(S)Methylbutylamide] | 10 nM
CC[C@H](C)CNC(=O)C[C@H](O)[C@H](CC1CCCCC1)NC(=O)[C@H](Cc1c[nH]cn1)NC(=O)[C@H](Cc1ccccc1)NC(=O)N1CCNCC1 [Example 6, N-(Piperazin-1-yl)carbonyl-Phenylalanyl-Histidyl-ACHPA-2(S)-Methylbutylamide] | 43 nM
C[N+]12CCC(CC1)C(NC(=O)C[C@H](O)[C@H](CC1CCCCC1)NC(=O)[C@H](Cc1c[nH]cn1)NC(=O)[C@H](Cc1ccccc1)NC(=O)N1CCOCC1)C2 (stereo partly drawn) [Example 7, N-(morpholin-4-yl)carbonyl-L-Phenylalanyl-L-Histidyl(3S,4S)-4-Amino-5-Cyclohexyl-3-Hydroxypentanoyl-1-Methylquinuclidinium-3-yl-Amide Acetate] | 29 nM
O=C(C[C@H](O)[C@H](CC1CCCCC1)NC(=O)[C@H](Cc1c[nH]cn1)NC(=O)[C@H](Cc1ccccc1)NC(=O)N1CCOCC1)NC1CN2CCC1CC2 (stereo partly drawn) [N-(morpholin-4-yl)carbonyl-L-Phenylalanyl-L-Histidyl-(3S,4S)-4-amino-5-cyclohexyl-3-hydroxy pentanoyl-3-quinuclidinyl amide] | 30 nM
